From ChEMBL document CHEMBL3885861, “Open TG-GATES”

Species on record: Rattus norvegicus
Assay: Open TG-GATES - Regimen: Single
Assay type: toxicity, organism-based, Sprague-Dawley
Parameters: regimen Single, gender Male, age 6 weeks
Details: in vivo, po, 50 mg/kg, route gavage, dose level Middle; for APTT / Bas / Eos / Fbg / Hb / Ht / Lym / MCH / MCHC / MCV / Mono / Neu / PT / Plat / RBC / Ret / WBC: tissue Blood; for KIDNEY_L / KIDNEY_R / KIDNEY_TOTAL: tissue Kidney; for LIVER: tissue Liver; for A/G / ALP / ALT / AST / BUN / CRE / Ca / Cl / DBIL / GLC / IP / K / LDH / Na / PL / RALB / TBIL / TC / TG / TP / gamma-GTP: tissue Plasma

CC(C)C(=O)Nc1ccc([N+](=O)[O-])c(C(F)(F)F)c1 [FLUTAMIDE]
TERMINAL_BW (3 h): 209.6 g
APTT (3 h): 18.6 s
Bas (3 h): 0%
Eos (3 h): 1%
Fbg (3 h): 216.6 mg/dL
Hb (3 h): 13.4 g/dL
Ht (3 h): 39.1%
Lym (3 h): 73.6%
MCH (3 h): 21.5 pg
MCHC (3 h): 34.2%
MCV (3 h): 63 fL
Mono (3 h): 2.8%
Neu (3 h): 21.4%
PT (3 h): 12.7 s
Plat (3 h): 136.9 x10_4/uL
RBC (3 h): 621 x10_4/ul
Ret (3 h): 7.8%
WBC (3 h): 82.5 x10_2/uL
KIDNEY_L (3 h): 0.9 g
KIDNEY_R (3 h): 0.9 g
KIDNEY_TOTAL (3 h): 1.8 g
LIVER (3 h): 9.6 g
A/G (3 h): 1.7
ALP (3 h): 785.4 IU/L
ALT (3 h): 35.8 IU/L
AST (3 h): 64 IU/L
BUN (3 h): 12 mg/dL
CRE (3 h): 0.4 mg/dL
Ca (3 h): 10.7 mg/dL
Cl (3 h): 103.4 meq/L
DBIL (3 h): 0.1 mg/dL
GLC (3 h): 199.4 mg/dL
IP (3 h): 9.9 mg/dL
K (3 h): 4.1 meq/L
LDH (3 h): 168.4 IU/L
Na (3 h): 140 meq/L
PL (3 h): 158.6 mg/dL
RALB (3 h): 3.5 g/dL
TBIL (3 h): 0.2 mg/dL
TC (3 h): 80.2 mg/dL
TG (3 h): 86.8 mg/dL
TP (3 h): 5.6 g/dL
gamma-GTP (3 h): 1.2 IU/L
TERMINAL_BW (6 h): 209.1 g
APTT (6 h): 18.9 s
Bas (6 h): 0%
Eos (6 h): 0.8%
Fbg (6 h): 220.4 mg/dL
Hb (6 h): 13.2 g/dL
Ht (6 h): 38.3%
Lym (6 h): 75%
MCH (6 h): 21.8 pg
MCHC (6 h): 34.6%
MCV (6 h): 63 fL
Mono (6 h): 3.4%
Neu (6 h): 20.4%
PT (6 h): 13 s
Plat (6 h): 126.7 x10_4/uL
RBC (6 h): 608.4 x10_4/ul
Ret (6 h): 7.8%
WBC (6 h): 89.5 x10_2/uL
KIDNEY_L (6 h): 1 g
KIDNEY_R (6 h): 0.9 g
KIDNEY_TOTAL (6 h): 1.9 g
LIVER (6 h): 8.9 g
A/G (6 h): 1.6
ALP (6 h): 921.6 IU/L
ALT (6 h): 33.4 IU/L
AST (6 h): 68.2 IU/L
BUN (6 h): 7.6 mg/dL
CRE (6 h): 0.4 mg/dL
Ca (6 h): 10.6 mg/dL
Cl (6 h): 101.6 meq/L
DBIL (6 h): 0.082 mg/dL
GLC (6 h): 196 mg/dL
IP (6 h): 9.9 mg/dL
K (6 h): 3.9 meq/L
LDH (6 h): 129.2 IU/L
Na (6 h): 140 meq/L
PL (6 h): 140.8 mg/dL
RALB (6 h): 3.4 g/dL
TBIL (6 h): 0.1 mg/dL
TC (6 h): 79.6 mg/dL
TG (6 h): 40.2 mg/dL
TP (6 h): 5.5 g/dL
gamma-GTP (6 h): 1.2 IU/L
TERMINAL_BW (9 h): 207.5 g
APTT (9 h): 18.7 s
Bas (9 h): 0%
Eos (9 h): 1%
Fbg (9 h): 227 mg/dL
Hb (9 h): 13.1 g/dL
Ht (9 h): 38.6%
Lym (9 h): 76.6%
MCH (9 h): 21.9 pg
MCHC (9 h): 34.1%
MCV (9 h): 64.3 fL
Mono (9 h): 3%
Neu (9 h): 18.6%
PT (9 h): 13 s
Plat (9 h): 135.1 x10_4/uL
RBC (9 h): 601.2 x10_4/ul
Ret (9 h): 8.2%
WBC (9 h): 75 x10_2/uL
KIDNEY_L (9 h): 0.9 g
KIDNEY_R (9 h): 0.9 g
KIDNEY_TOTAL (9 h): 1.8 g
LIVER (9 h): 8.6 g
A/G (9 h): 1.7
ALP (9 h): 922.4 IU/L
ALT (9 h): 30.2 IU/L
AST (9 h): 61.2 IU/L
BUN (9 h): 9.8 mg/dL
CRE (9 h): 0.3 mg/dL
Ca (9 h): 10.3 mg/dL
Cl (9 h): 103.8 meq/L
DBIL (9 h): 0.088 mg/dL
GLC (9 h): 207.4 mg/dL
IP (9 h): 9.9 mg/dL
K (9 h): 3.8 meq/L
LDH (9 h): 123.2 IU/L
Na (9 h): 140.6 meq/L
PL (9 h): 153.2 mg/dL
RALB (9 h): 3.4 g/dL
TBIL (9 h): 0.2 mg/dL
TC (9 h): 81.2 mg/dL
TG (9 h): 53.6 mg/dL
TP (9 h): 5.4 g/dL
gamma-GTP (9 h): 1.2 IU/L
TERMINAL_BW (24 h): 216.8 g
APTT (24 h): 18.2 s
Bas (24 h): 0%
Eos (24 h): 1%
Fbg (24 h): 209.6 mg/dL
Hb (24 h): 13.7 g/dL
Ht (24 h): 40.6%
Lym (24 h): 77.6%
MCH (24 h): 21.6 pg
MCHC (24 h): 33.8%
MCV (24 h): 63.7 fL
Mono (24 h): 3.2%
Neu (24 h): 17%
PT (24 h): 12.9 s
Plat (24 h): 132.9 x10_4/uL
RBC (24 h): 637 x10_4/ul
Ret (24 h): 6.7%
WBC (24 h): 93 x10_2/uL
KIDNEY_L (24 h): 0.9 g
KIDNEY_R (24 h): 0.9 g
KIDNEY_TOTAL (24 h): 1.8 g
LIVER (24 h): 10.5 g
A/G (24 h): 1.5
ALP (24 h): 950.6 IU/L
ALT (24 h): 38.2 IU/L
AST (24 h): 65.8 IU/L
BUN (24 h): 16 mg/dL
CRE (24 h): 0.4 mg/dL
Ca (24 h): 10.5 mg/dL
Cl (24 h): 103.2 meq/L
DBIL (24 h): 0.1 mg/dL
GLC (24 h): 203.4 mg/dL
IP (24 h): 6.8 mg/dL
K (24 h): 3.8 meq/L
LDH (24 h): 145.2 IU/L
Na (24 h): 140.6 meq/L
PL (24 h): 141.2 mg/dL
RALB (24 h): 3.4 g/dL
TBIL (24 h): 0.2 mg/dL
TC (24 h): 80 mg/dL
TG (24 h): 83.4 mg/dL
TP (24 h): 5.7 g/dL
gamma-GTP (24 h): 1 IU/L
